From US20140234420A1, “Method of Treating Skin Disorders using Nanoscale Delivery Devices and Transdermal Enhancing Compositions” (priority 2008, published 2014)
≈ marks a conversion by molar mass, not a printed value. Counter-ions that a name gives are not always drawn. Like-named read-outs stand apart in the source and are kept apart here.

Assays:
[1] = cited from earlier work
[2] = cited from earlier work; remark: listed apart in the source
[3] = Size, polydispersity index and zeta potential determination (Malvern Zetasizer); type: physicochemical
Procedure: Nanoparticles (2 mg) and micelles (2 mg) were dispersed in 2 ml of purified water and bath sonicated for 1 min. They were then centrifuged at 10000 rpm for 5 min and diluted 50 times with distilled water. About 50 μl of the nanoemulsion was taken and dilated to 1 mL using distilled water. A liposome dispersion was diluted 100 times using purified water and probe sonicated for 1 min using 20% amplitude. The sizes, polydispersity indexes, and zeta potentials, were measured with a Malvern Zetasizer.
Nanoparticles (2 mg) were dispersed in 1 ml of purified water and probe sonicated for 1 min using 20% amplitude. Subsequently, the sonicated particles were diluted 10 times with distilled water and properties were measured using a Malvern Zetasizer. […]
Size, polydispersity index and zeta potential determination: nanoparticles (50 μl), nanoemulsions (squalene) (50 μl) and nanomicelles (2 mg) were dispersed in 2 ml of purified water separately, vortex for 1 min. Further, the size, polydispersity index and zeta potential were measured with a Malvern Zetasizer.

[4] = Encapsulation (entrapment) efficiency; type: physicochemical; conditions: for % EE: drug encapsulated in zein/lecithin/squalene nanoemulsions
Procedure: Detection wavelength: 340 nm; Injection volume: 50 μl: Run time: 10 min. […] The resulting solution was centrifuged at 5000 rpm for 5 min. […] The resulting solution was centrifuged 5000 rpm for 5 min. […] In vitro release of MTX from the formulations in phosphate buffer (pH 7.4) was studied using UV-spectrophotometry. […] Benzoyl peroxide content was measured using HPLC.

scleroderma patients = conditions: one course of systemic treatment (MTX 15-25 mg/weekly for 6 months); cited from earlier work
[5] = hamster ear in vitro, 24 hrs treatment
Source text: The excised hamster ear was placed on the Franz diffusion cell by exposing ventral surface towards the donor compartment.

[6] = sebum flux from citrate-phosphate buffer (pH 5.5), 37° C.
Procedure: The supporting membrane (polycarbonate membrane, pore size of 0.4 μm) of each insert was loaded with 2.5±0.2 mg of the artificial sebum. […] The study was carried out in an incubator at 125 rpm under 37° C. The complete receptor medium was replaced with fresh medium at predetermined intervals, i.e., 10, 20, 30, 40, 50, 60, 75, 90, 120 and 180 minutes after treatment. […] The cumulative quantity of drug in the receiver compartment was plotted as a function of time. The flux value for a given experiment was obtained from the linear slope (steady-state portion) of the cumulative amount of drug permeated versus time curve.

[7] = Dispersibility in aqueous solution; type: physicochemical
[8] = Stability (half-life) of retinol, free and encapsulated; type: physicochemical
Source text: Encapsulation of retinol into the zein nanoparticles and micelles improved the stability of retinol by 2 to 5 fold (see Table 5).

[9] = molecules encapsulated in nanoemulsions (Table 23)
[10] = drug encapsulated in zein/lecithin/squalene nanoemulsions
[11] = compound encapsulated in zein micelles
[12] = compound encapsulated in zein core-shell particles

O=C(OOC(=O)c1ccccc1)c1ccccc1 [Benzoyl peroxide, Benzoyl Peroxide]
Solubility in ether and chloroform [1]: Soluble | Solubility in water [1]: insoluble | Log P [2, 9]: 3.48 | Particle Size [3, 10]: 208.5 ± 6.7 nm | % EE [4]: 83.66 ± 3.81%

COc1cc(/C=C/C(=O)CC(=O)/C=C/c2ccc(O)c(OC)c2)ccc1O [Curcumin]
PI [3, 11]: 0.25 ± 0.03 | Particle Size [3, 11]: 124 ± 4 nm | Encapsulation Efficiency [4, 11]: 95 ± 4%

COc1cccc2c1C(=O)c1c(O)c3c(c(O)c1C2=O)C[C@@](O)(C(=O)CO)C[C@@H]3O[C@H]1C[C@H](N)[C@H](O)[C@H](C)O1 [Doxorubicin-HCl]
Log P ([2]; compounds encapsulated in zein core-shell particles (Table 1)): −0.5 | Particle Size [3, 12]: 171 ± 45 nm | Encapsulation Efficiency [4, 12]: 61 ± 16%

COc1cccc2c1C(=O)c1c(O)c3c(c(O)c1C2=O)C[C@@](O)(C(=O)CO)C[C@@H]3O[C@H]1C[C@H](N)[C@H](O)[C@H](C)O1 [Doxorubicin]
PI [3, 11]: 0.18 ± 0.06 | Particle Size [3, 11]: 153 ± 3 nm | Encapsulation Efficiency [4, 11]: 92 ± 6%

CN(Cc1cnc2nc(N)nc(N)c2n1)c1ccc(C(=O)N[C@@H](CCC(=O)O)C(=O)O)cc1 [Methotrexate]
Patients who reached a remission status (scleroderma patients): 51% | Solubility in water ([1]; at 19° C.): < 0.1 g/100 ml | Solubility in DMSO [1]: 100 mM (≈ 45.4 mg/mL) | Log P [2]: −1.8 | Log P [2, 9]: −1.8 | Particle Size [3, 10]: 214.3 ± 8.4 nm | % EE [4]: 87.60 ± 2.1%

CCN(CC)c1ccc2nc3c4ccccc4c(=O)cc-3oc2c1 [Nile Red]
Log P ([2]; compounds encapsulated in zein micelles (Table 2)): 5 | PI [3, 11]: 0.21 ± 0.08 | Particle Size [3, 11]: 165 ± 7 nm | Encapsulation Efficiency [4, 11]: 77 ± 11%

CC1=C(/C=C/C(C)=C/C=C/C(C)=C/C(=O)O)C(C)(C)CCC1 [Retinoic acid Solution]
% Applied dose in Cartilage [5]: 2.409% | % Applied dose in Dermis [5]: 1.444% | % Applied dose in Dorsal [5]: 4.713% | % Applied dose in Sebaceous gland [5]: 0.06619% | % Applied dose in SC ([5]; 100 μg retinoic acid): 1.692%

CC1=C(/C=C/C(C)=C/C=C/C(C)=C/C(=O)O)C(C)(C)CCC1 [Retinoic acid]
Flux [6]: 0.154 ± 0.003 μg/cm^2/min | Solubility in fat [1]: soluble | Solubility in water [1]: nearly insoluble | Log P [2, 9]: 6.83 | Particle Size [3, 10]: 152 ± 3.6 nm

CC1=C(/C=C/C(C)=C/C=C/C(C)=C/CO)C(C)(C)CCC1 [Retinol]
Dispersibility in aqueous solution / water [7]: not dispersible in water | Solubility in fat [1]: soluble | Solubility in water [1]: nearly insoluble | PI [3, 11]: 0.27 ± 0.06 | Particle Size [3, 11]: 191 ± 6 nm | half-life ([8]; liquid state, Dark): 20.8 ± 2.1 h | half-life ([8]; liquid state, Light): 16.1 ± 1.9 h | half-life ([8]; solid state, Dark): 63 ± 2.7 h | half-life ([8]; solid state, Light): 52.8 ± 3.5 h | Encapsulation Efficiency [4, 11]: 83 ± 3.1%
